{"source": "patent US20120035855A1", "about": "“METHOD OF NETWORK-BASED IDENTIFICATION FOR DRUG ACTION AND/OR SYNERGY EFFECT OF MEDICINE COMBINATION” (TSINGHUA UNIVERSITY, priority 2008, published 2012)", "data": [{"tested_on": "Human Umbilical Vein Endothelial Cells (HUVECs)", "assay": "Cell scratch experiment, inhibition of endothelial cell migration", "assay_type": "cell-based", "design": "Ranking by experiment results: dose or concentration left out as unconfirmed", "settings": "single medicine; 9 h intervention; FIG. 4", "excerpt": "(§1) Experiment: cell scratch experiments were used to quantitively measure the inhibition of medicines on migration. […] Sterile operation had to be ensured during cell scrapping process. Human Umbilical Vein Endothelial Cells (HUVECs) available from Cascade Biologics (Portland, USA) were repeatably cultured with the supplier's criterions; Matrine, quercetin, emodin, evodiamine, genistein, and aconitine were purchased from National Institute for the Control of Pharmaceutical and Biological Products, and their experimental density were set at 10 mM as indicated by literature. HUVECs were cultured on 12-plate coated by 0.1% gelatin, the cells were inactivated after 2 hours under the conditions of 5% CO2, 37° C. and 10 ug/ml of Mitonycin C. Cell scraper about 1 mm in width was used to scrap on the fused surface of single-layer of cells. Standard endothelial cell growth medium (ECGM) free of medicine application was taken as control group. Pictures were taken at 6 h−10 h of medicine intervention by Nikon digital camera, with migration distance being scaled by configure software. The experiment was repeated five times. The […] ability of the medicines was measured by Migration Inhibition Rate, determined as:\n(§2) Migration Inhibition Rate=(migration distance of control group−migration distance of experimental group)/migration distance of control group", "values": [{"compound": "O=C1CCC[C@@H]2[C@H]3CCCN4CCC[C@@H](CN12)[C@@H]34", "note": "[Matrine]", "inhibition on endothelial cell migration (in words)": "strongest inhibition"}]}, {"tested_on": "Human Umbilical Vein Endothelial Cells (HUVECs)", "assay": "Cell scratch experiment, inhibition of endothelial cell migration", "assay_type": "cell-based", "design": "Ranking by experiment results: dose or concentration left out as unconfirmed", "settings": "single medicine; rank of migration inhibition among six medicines; 9 h", "excerpt": "as §1, §2", "values": [{"compound": "CCN1C[C@]2(COC)[C@H](O)C[C@H](OC)[C@@]34[C@@H]5C[C@@]6(O)[C@H](OC(=O)c7ccccc7)[C@@H]5[C@@](OC(C)=O)([C@@H]([C@H](OC)[C@H]23)[C@@H]14)[C@@H](O)[C@@H]6OC", "note": "[Aconitine]", "Ranking by experiment results": 6}, {"compound": "Cc1cc(O)c2c(c1)C(=O)c1cc(O)cc(O)c1C2=O", "note": "[Emodin]", "Ranking by experiment results": 3}, {"compound": "O=c1c(-c2ccc(O)cc2)coc2cc(O)cc(O)c12", "note": "[Genistein]", "Ranking by experiment results": 5}, {"compound": "O=C1CCC[C@@H]2[C@H]3CCCN4CCC[C@@H](CN12)[C@@H]34", "note": "[Matrine]", "Ranking by experiment results": 1}, {"compound": "O=c1c(O)c(-c2ccc(O)c(O)c2)oc2cc(O)cc(O)c12", "note": "[Quercetin]", "Ranking by experiment results": 2}, {"compound": "Evodiamine", "Ranking by experiment results": 4}]}]}
